In patent publication US7728146B2, “Enzyme inhibitors” (Probiodrug AG, priority 2006, dated 2010) one finds IC50 data, which are given here for 38 compounds.

The test has as its target DP IV (Homo sapiens, UniProt P27487). In words: DP IV inhibition IC50, parallel-synthesis compounds tested directly following synthesis (without purification). It counts as biochemical. Set-up: IC50 DP4; other: tested directly following parallel synthesis, without purification; compounds of formula (Ib) from parallel synthesis, tested directly following synthesis. The note with it: DP IV inhibition; compounds of formula (Ib) from parallel synthesis, tested directly following synthesis (without purification); read-out: IC50. As to the method:
Compounds were immediately tested regarding their activity as DP IV inhibitors.
Substances are screened for inhibition of dipeptidyl peptidase (DP IV) by their ability to inhibit the hydrolysis of the DP IV specific substrate Glycyl-Prolyl-4-Nitroanilide (Gly-Pro-pNA). All compounds are diluted in DMSO and IC50 will be determined with 11 serial dilutions (1:2) starting with an final concentration of 100 μM. The final DMSO concentration in the assay is 5% (v/v). The method was automated using a Tecan Genesis Freedom liquid handler and a Genius Pro (Tecan) microplate reader.
DP IV from porcine kidney (pDP IV) or recombinant human DP IV (rhDP IV) is diluted in HEPES buffer to a final activity of approximately 40-50 μU*ml^−1. The DP IV is stored in a cooling rack (4° C.) on the liquid handler.
The assay may becarried out at room temperature using Freedom liquid handler connected with a Genios Pro microplate reader. Each sample is measured in duplicate. Each sample stock solution is prediluted with DMSO in a ratio of 1:5 in a polypropylen 96-well plate. From this predilution 10 serial (1:2) dilutions in DMSO are prepared. 13.5 μl of the 11 DMSO dilutions and DMSO alone are transferred to the measurement microplate (duplicates) and 86.5 μl water, 100 μl HEPES buffer and 50 μl substrate solution are added to each well. The enzymatic reaction is started by addition of 20 μl enzyme solution to each well, and then the microplate is immediately transferred to the microplate reader.
After short mixing (20 s) the release of 4-Nitroanilin (pNA) is monitored at 405 nm for 30 cycles (approx. 18 min).
Post assay calculations are done by the Magellan (Tecan) and Graphit Software. The linear slopes are calculated for each well and averaged for the duplicates. The residue activities are calculated in relation to a sample containing only solvent instead of inhibitor and expressed in %. Residue activities are plotted against the log of inhibitor concentrations and IC50 is calculated by an 4-parameter fitting ranging from 0 to 100%.
A word on the IC50: it is the concentration that inhibits the measured activity by half. On to `NCc1c(-c2ccc(Cl)cc2Cl)ncn1Cc1cc(F)cc(C(F)(F)F)c1` [3b, C-[5-(2,4-Dichloro-phenyl)-3-(3-fluoro-5-trifluoromethyl-benzyl)-3H-imidazol-4-yl]-methylamine], for which the IC50 was 2.8 µM. For the compound `NCc1c(-c2ccc(Cl)cc2Cl)ncn1CCNC1CCCCC1` [4b, {2-[5-Aminomethyl-4-(2,4-dichloro-phenyl)-imidazol-1-yl]-ethyl}-cyclohexyl-amine], the IC50 was found to be 10 µM. Regarding `COc1ccc(Cn2cnc(-c3ccc(Cl)cc3Cl)c2CN)cc1OC` [5b, C-[5-(2,4-Dichloro-phenyl)-3-(3,4-dimethoxy-benzyl)-3H-imidazol-4-yl]-methylamine], the IC50 is 19.9 µM. Regarding `CC(C)N(CCn1cnc(-c2ccc(Cl)cc2Cl)c1CN)C(C)C` [6b, {2-[5-Aminomethyl-4-(2,4-dichloro-phenyl)-imidazol-1-yl]-ethyl}-diisopropyl-amine], the IC50 was determined as 10.9 µM. Consider `NCc1c(-c2ccc(Cl)cc2Cl)ncn1CCc1cccnc1` [9b, C-[5-(2,4-Dichloro-phenyl)-3-(2-pyridin-3-yl-ethyl)-3H-imidazol-4-yl]-methylamine], for which the IC50 was 7.3 µM.

`NCc1c(-c2ccc(Cl)cc2Cl)ncn1CCN1CCOCC1` [10b, C-[5-(2,4-Dichloro-phenyl)-3-(2-morpholin-4-yl-ethyl)-3H-imidazol-4-yl]-methylamine]: the IC50 worked out at 12.7 µM. Turning to `Cc1cc(Cn2cnc(-c3ccc(Cl)cc3Cl)c2CN)no1` [13b, C-[5-(2,4-Dichloro-phenyl)-3-(5-methyl-isoxazol-3-ylmethyl)-3H-imidazol-4-yl]-methylamine], the IC50 amounted to 20.8 µM. Turning to `NCc1c(-c2ccc(Cl)cc2Cl)ncn1CCCCCCO` [16b, 6-[5-Aminomethyl-4-(2,4-dichloro-phenyl)-imidazol-1-yl]-hexan-1-ol], the IC50 turned out to be 12.7 µM.

As for `NCc1c(-c2ccc(Cl)cc2Cl)ncn1CCOCCO` [18b, 2-{2-[5-Aminomethyl-4-(2,4-dichloro-phenyl)-imidazol-1-yl]-ethoxy}-ethanol], the IC50 is 20.8 µM. Take `NCc1c(-c2ccc(Cl)cc2Cl)ncn1CCCNC1CCCCC1` [19b, {3-[5-Aminomethyl-4-(2,4-dichloro-phenyl)-imidazol-1-yl]-propyl}-cyclohexyl-amine]: the IC50 is 45.1 µM. On to `NCc1c(-c2ccc(Cl)cc2Cl)ncn1CCNc1ccc([N+](=O)[O-])cn1` [20b, {2-[5-Aminomethyl-4-(2,4-dichloro-phenyl)-imidazol-1-yl]-ethyl}-(5-nitro-pyridin-2-yl)-amine], for which the IC50 stood at 8.2 µM. With `CC(N)c1c(-c2ccc(Cl)cc2Cl)ncn1CCCN1CCCC1=O` (centres unmarked) [22b, 1-{3-[5-(1-Amino-ethyl)-4-(2,4-dichloro-phenyl)-imidazol-1-yl]-propyl}-pyrrolidin-2-one], the IC50 came to 30.7 µM. The result for `NCc1c(-c2ccc(Cl)cc2Cl)ncn1Cc1ccc(Br)cc1` [25b, C-[3-(4-Bromo-benzyl)-5-(2,4-dichloro-phenyl)-3H-imidazol-4-yl]-methylamine] reads 6.4 µM; that for `NCc1c(-c2ccc(Cl)cc2Cl)ncn1CCN1CCCC1` [26b, C-[5-(2,4-Dichloro-phenyl)-3-(2-pyrrolidin-1-yl-ethyl)-3H-imidazol-4-yl]-methylamine], 40.6 µM. As for `Cc1cnc(Cn2cnc(-c3ccc(Cl)cc3Cl)c2CN)cn1` [27b, C-[5-(2,4-Dichloro-phenyl)-3-(5-methyl-pyrazin-2-ylmethyl)-3H-imidazol-4-yl]-methylamine], the figure is 19.9 µM. The result for `NCc1c(-c2ccc(Cl)cc2Cl)ncn1CCCN1CCCC1=O` [29b, 1-{3-[5-Aminomethyl-4-(2,4-dichloro-phenyl)-imidazol-1-yl]-propyl}-pyrrolidin-2-one] reads 22.6 µM. On to `NCCCc1c(-c2ccc(Cl)cc2Cl)ncn1Cc1cc(Br)ccc1F` [30b, 3-[3-(5-Bromo-2-fluoro-benzyl)-5-(2,4-dichloro-phenyl)-3H-imidazol-4-yl]-propylamine], for which the IC50 was found to be 17.2 µM. Turning to `NCc1c(-c2ccc(Cl)cc2Cl)ncn1CC(c1ccccc1)c1ccccc1` [31b, C-[5-(2,4-Dichloro-phenyl)-3-(2,2-diphenyl-ethyl)-3H-imidazol-4-yl]-methylamine], the IC50 was 45.1 µM.

With `CC(N)c1c(-c2ccc(Cl)cc2Cl)ncn1CCCCCCO` (centres unmarked) [34b, 6-[5-(1-Amino-ethyl)-4-(2,4-dichloro-phenyl)-imidazol-1-yl]-hexan-1-ol], the IC50 is 38.8 µM.

As to `COc1ccc(Cn2cnc(-c3ccc(Cl)cc3Cl)c2CN)cc1` [35b, C-[5-(2,4-Dichloro-phenyl)-3-(4-methoxy-benzyl)-3H-imidazol-4-yl]-methylamine], the IC50 stood at 11.8 µM. Consider `CC(N)c1c(-c2ccc(Cl)cc2Cl)ncn1Cc1cc(F)ccc1F` (centres unmarked) [36b, 1-[5-(2,4-Dichloro-phenyl)-3-(2,5-difluoro-benzyl)-3H-imidazol-4-yl]-ethylamine], for which the IC50 is 25.3 µM. With `NCCc1c(-c2ccc(Cl)cc2Cl)ncn1CCc1cccc(Cl)c1` [37b, 2-[3-[2-(3-Chloro-phenyl)-ethyl]-5-(2,4-dichloro-phenyl)-3H-imidazol-4-yl]-ethylamine], the IC50 is 48.7 µM. The result for `NCc1c(-c2ccc(Cl)cc2Cl)ncn1Cc1c(F)cccc1F` [40b, C-[5-(2,4-Dichloro-phenyl)-3-(2,6-difluoro-benzyl)-3H-imidazol-4-yl]-methylamine] reads 10.9 µM; that for `NCc1c(-c2ccc(Cl)cc2Cl)ncn1CCNc1ccccc1` [41b, {2-[5-Aminomethyl-4-(2,4-dichloro-phenyl)-imidazol-1-yl]-ethyl}-phenyl-amine], 32.5 µM.

As to `NCc1c(-c2ccc(Cl)cc2Cl)ncn1CCCCc1ccccc1` [42b, C-[5-(2,4-Dichloro-phenyl)-3-(4-phenyl-butyl)-3H-imidazol-4-yl]-methylamine], the IC50 is 7.3 µM. The result for `COc1ccc(Cn2cnc(-c3ccc(Cl)cc3Cl)c2C(C)N)cc1` (centres unmarked) [43b, 1-[5-(2,4-Dichloro-phenyl)-3-(4-methoxy-benzyl)-3H-imidazol-4-yl]-ethylamine] reads 27.1 µM; that for `CC(C)CCn1cnc(-c2ccc(Cl)cc2Cl)c1C(C)N` (centres unmarked) [44b, 1-[5-(2,4-Dichloro-phenyl)-3-(3-methyl-butyl)-3H-imidazol-4-yl]-ethylamine], 40.6 µM; that for `COc1ccc(CCn2cnc(-c3ccc(Cl)cc3Cl)c2CN)cc1` [45b, C-{5-(2,4-Dichloro-phenyl)-3-[2-(4-methoxy-phenyl)-ethyl]-3H-imidazol-4-yl}-methylamine], 27.1 µM. With `NCc1c(-c2ccc(Cl)cc2Cl)ncn1Cc1cccc(Cl)c1Cl` [46b, C-[3-(2,3-Dichloro-benzyl)-5-(2,4-dichloro-phenyl)-3H-imidazol-4-yl]-methylamine], the IC50 stood at 2.8 µM.

With `NCc1c(-c2ccc(Cl)cc2Cl)ncn1CCCO` [47b, 3-[5-Aminomethyl-4-(2,4-dichloro-phenyl)-imidazol-1-yl]-propan-1-ol], the IC50 was found to be 10.9 µM. For the compound `NCc1c(-c2ccc(Cl)cc2Cl)ncn1CCc1ccc(Br)cc1` [49b, C-[3-[2-(4-Bromo-phenyl)-ethyl]-5-(2,4-dichloro-phenyl)-3H-imidazol-4-yl]-methylamine], the IC50 is 9.1 µM.

For the compound `NCc1c(-c2ccc(Cl)cc2Cl)ncn1Cc1cccc(C(F)(F)F)c1F` [50b, C-[5-(2,4-Dichloro-phenyl)-3-(2-fluoro-3-trifluoromethyl-benzyl)-3H-imidazol-4-yl]-methylamine], the IC50 was 15.4 µM. As to `CC(C)CCCCCCn1cnc(-c2ccc(Cl)cc2Cl)c1C(C)N` (centres unmarked) [51b, 1-[5-(2,4-Dichloro-phenyl)-3-(7-methyl-octyl)-3H-imidazol-4-yl]-ethylamine], the IC50 is 37.9 µM. Take `NCc1c(-c2ccc(Cl)cc2Cl)ncn1CCc1cccc(Cl)c1` [52b, C-[3-[2-(3-Chloro-phenyl)-ethyl]-5-(2,4-dichloro-phenyl)-3H-imidazol-4-yl]-methylamine]: the IC50 came out at 5.5 µM.

Regarding `NCc1c(-c2ccc(Cl)cc2Cl)ncn1CCC(c1ccccc1)c1ccccc1` [53b, C-[5-(2,4-Dichloro-phenyl)-3-(3,3-diphenyl-propyl)-3H-imidazol-4-yl]-methylamine], the IC50 came to 18.1 µM.

Regarding `NCc1c(-c2ccc(Cl)cc2Cl)ncn1CCc1ccc(F)cc1` [55b, C-{5-(2,4-Dichloro-phenyl)-3-[2-(4-fluoro-phenyl)-ethyl]-3H-imidazol-4-yl}-methylamine], the IC50 came out at 3.7 µM. For the compound `NCc1c(-c2ccc(Cl)cc2Cl)ncn1CCO` [56b, 2-[5-Aminomethyl-4-(2,4-dichloro-phenyl)-imidazol-1-yl]-ethanol], the concentration for half-maximal inhibition (IC50) was found to be 19.9 µM. For the compound `NCc1c(-c2ccc(Cl)cc2Cl)ncn1CCc1ccccc1` [57b, C-[5-(2,4-Dichloro-phenyl)-3-phenethyl-3H-imidazol-4-yl]-methylamine], the IC50 amounted to 9.1 µM.
